“Also recorded” adds a separate entry of the source. Read-outs that look alike come from different tables or passages of the source.
Tests used:
[1] = tested on: cardiomyocytes in rat heart; assay: Cardiomyocyte proliferation following direct injection in-vivo (PCNA staining); conditions: direct injection into rat heart, 0.5, 5 and 50 microM, three days, versus saline
Description: Proliferation of cardiomyocytes was evaluated in-vivo following direct injection of EH48 in three concentrations (0.5, 5 and 50 microM) into rat heart. Three days after injections rats were sacrificed and the hearts were fixed with formaldehyde 4%. Slides of 5 micron were stained with the DNA specific marker PCNA. Only cells with morphology of cardiomyocytes (large cells with striation) that expressed the PCNA in the nucleus (brown staining) were considered as proliferate cardiomyocytes (FIG. 6A, arrows). The number of stained cells in each treatment was evaluated compared to control (saline injected) rats (FIG. 6B).

[2] = tested on: cardiomyocytes; assay: Cardiomyocyte viability (XTT) following incubation with EH48; assay type: cell-based, rat; conditions: cardiomyocytes starved 16-18 h, compound 24 h, XTT 4 h, FIG. 5
Description: (§1) The cell viability was examined using the XTT method following kit instructions (Biological Industry, Israel). The assay is based on the ability of metabolic active cells to reduce the tetrazolium salt XTT to orange colored compound of formazan. The dye formed is water soluble and the dye intensity can be read with spectrophotometer at 450-500 nm. The intensity of the dye is proportional to the number of metabolic active cells.
The viability of the cells was measured as described above. Briefly, cells were starved for 16-18 h followed by incubation with the compound of formula II (EH48) for 24 h and incubation with XTT for an other 4 h. The assay is based on the ability of metabolic active cells to reduce the tetrazolium salt XTT to orange colored compound of formazan. The intensity of the dye is proportional to the number of metabolically active cells.

[3] = tested on: p38-MAPK; assay: Western immunoblot, p38-MAPK phosphorylation in VSM cells; assay type: cell-based, rat; conditions: 0.5-20 μM, 20 min, 37° C., FIG. 1A
Description: (§2) Stimulation of ERKs and p38-MAPKs with compounds of the invention was characterized in VSM cells and cardiomyocytes. […] As a positive control for ERKs activation, the cells were incubated with 10^−7M EGF for 5 minutes. […] Therefore, this compound and other derivates may be used as selective compounds to inhibit or stimulate one of the members in the MAPKs-signaling pathway.

[4] = tested on: P38 pathway; assay: Western immunoblot, p38 phosphorylation in BL6-8 melanoma cells; assay type: cell-based; conditions: FIG. 3B
[5] = tested on: human umbilical vein endothelial cells; assay: Cell viability (XTT) of endothelial cells; assay type: cell-based; conditions: 24 h incubation with compound, then XTT 4 h; read-out: ID50 Endothelial cells
Description: (§3) Three main cell types of the cardiovascular system were evaluated: primary cardiomyocytes derived from neonatal rats primary vascular smooth muscle (VSM) cells derived from rat aorta and human umbilical vein endothelial cells. Furthermore, human colon carcinoma HT29 cells and BL6-8 melanoma cells were evaluated as representative cancer cells. The cells were prepared as described previously in Etzion S. et al.: JMCC 33 (2001) 1321-30; Granot Y. et al.: JBC 268 (1993) 9564-9; the ATCC (the Global Bioresource Center™); and Assa-Kunik et al.: J. Immunol. 171 (2003) 2945-52.
as §1
(§4) The viability of the cells was measured as described above. Briefly, cells were incubated with the compounds for 24 h followed by incubation with XTT for 4 h. The assay is based on the ability of metabolic active cells to reduce the tetrazolium salt XTT to orange colored compound of formazan. The intensity of the dye is proportional to the number of metabolically active cells. […]

[6] = tested on: primary cardiomyocytes derived from neonatal rats; assay: Cell viability (XTT) of cardiomyocytes; assay type: cell-based, rat; conditions: for IC50: 24 h incubation with compound, then XTT 4 h, read-out: ID50 Cardiomyocytes; for injury of cardiomyocytes at concentrations killing VSM cells: cardiomyocytes versus VSM cells
Description: as §3, §1
The viability of the cells was measured as described above. Briefly, cells were incubated with the compounds for 24 h followed by incubation with XTT for 4 h. The assay is based on the ability of metabolic active cells to reduce the tetrazolium salt XTT to orange colored compound of formazan. The intensity of the dye is proportional to the number of metabolically active cells. The concentration at which 50% cells remain viable, ID50, is shown in Table 1 for several compounds of the invention.

[7] = tested on: primary vascular smooth muscle (VSM) cells derived from rat aorta; assay: Cell viability (XTT) of VSM cells; assay type: cell-based; conditions: 24 h incubation with compound, then XTT 4 h; read-out: ID50 VSM cells
Description: as §3, §1, §4

[8] = tested on: ERKs; conditions: HT29 cells, 5-25 μM, 20 min to 4 h, FIG. 3A
[9] = tested on: HT29 human colon carcinoma cells; assay: Viability of HT29 human colon carcinoma cells; assay type: cell-based; conditions: 24 h incubation; read-out: ID50 HT29-colon carcinoma
Description: as §3, §1
HT29 human carcinoma cells were incubated for 24 h with compounds of the invention.

[10] = tested on: STAT3; assay: Western immunoblot, STAT3 phosphorylation in VSM cells; conditions: VSM cells activated with AVP, FIG. 2
Description: (§6) Confluent cell monolayers were growth-arrested in serum-free medium for 24 h prior to treatment with the compounds in this patent. Cells were washed twice with medium, scraped, resuspended in lysis buffer (10% glycerol, 25 mM NaCl, 0.1% Triton X-100, 50 mM NaF, 10 mM Na-pyrophosphate, 2 mM EGTA, 2 mM DTT, 20 mM p-nitro-phenylphosphate, 25 mM Tris-HCl, 2 mM Na2VO4, 10 μM PMSF, 10 μg/ml Leupeptin), and the lysate was centrifuged at 14,000 rpm for 20 min. Samples were separated by SDS-polyacrylamide gel electrophoresis, transferred to nitrocellulose membrane, and blocked for 1 h at room temperature with 5% nonfat milk in TBS-T buffer (20 mM Tris, 500 mM NaCl, and 0.01% Tween 20). The membrane was then incubated overnight at 4° C. with an appropriate dilution of anti-phospho-ERKs or anti-total ERK, anti-phospho-p38 or anti-phospho-JNK, followed by incubation for 1 h with the appropriate horseradish peroxidase-conjugated secondary antibody. The immunoblot signal was visualized through enhanced chemiluminescence.

[11] = tested on: ERKs survival pathway; assay: Western immunoblot, ERKs phosphorylation in BL6-8 melanoma cells; conditions: FIG. 3B
Description: as §6
The cells were starved for 24 h in serum free medium, incubated with the selected compound (5-25 μM) for 20 min to 4 h (dependent on the compound examined), 37° C., harvested, centrifuged and suspended in the lysis buffer. The MAPKs stimulation was estimated using the western immunoblot analysis as described above.

[12] = tested on: ERKs; assay: Western immunoblot, ERKs phosphorylation in cardiomyocytes; assay type: cell-based, rat; conditions: 0.5-10 μM, 20 min, 37° C., FIG. 1B
Description: (§5) The effect of the compounds of formula I on ERKs and p38-MAPK was checked in cardiomycetes. […] Stimulation of the MAPKs members by compounds of the invention was compared with the stimulation by the growth factor Ang (Angiotensin II, 10 nM, 10 min), which is known as MAPKs stimulator in cardiomyocytes. […] ERKs and p38 were related to the total amount of ERKs proteins in the sample. […] As explained, the ERKs signaling pathway participate in the cell survival and proliferation. Administering the compounds stimulating this pathways after myocardial infarction may accelerate cell survival of the cardiomyoctes; alternatively, said compounds may be administered as a preventing drug before the injury occurs in risk cases.

[13] = tested on: p38-MAPK; assay: Western immunoblot, p38-MAPK phosphorylation in cardiomyocytes; assay type: cell-based, rat; conditions: 0.5-10 μM, 20 min, 37° C., FIG. 1B
Description: as §5

[14] = tested on: HT29 human colon carcinoma cells; assay: Apoptosis of HT29 cells (DNA fragmentation, PI staining); assay type: cell-based; conditions: 48 h incubation
Description: The various cell types were incubated with a compound of formula I (0.3-25 μM) for 24-48 h. Untreated cells were served as control. After trypsinization, cells were centrifuged for 5 min, 1500 g and resuspended in DMEM medium contains 10% FCS. Sample of the cells (25 μl) was added to 2 μl mixture of (5 μg/ml) ethidium bromide and (5 μg/ml) acridine orange in PBS. Sample of the stained cells was examined under fluorescent microscope. Ethidium bromide binds to the DNA of damaged cells and stains it orange, while acridine orange stains the nucleus in green. Apoptotic cells appear as nuclei with orange staining of fragmented DNA.
HT29 cells, either untreated or treated 48 h with a compound of formula I (25 μM), after trypsinization, were collected and centrifuged for 5 min, 800 g. The pellet was resuspended with PBS and centrifuged again. 60 μl of PBS was added to the pellet followed by addition of 360 μl of ice-cold 80% ethanol and incubating overnight at −20° C. The cells were thawed on ice and centrifuged for 5 min 800 g 4° C. […] Analysis was carried out by fluorescence-activated flow cytometer (FACSscan).
Apoptosis was evaluated following incubation of 48 h with compound TW 69 using DNA fragmentation method (ethidium bromide staining) and PI (propidium iodide) staining assay, as described above. […]

[15] = tested on: ERKs; assay: Western immunoblot, ERKs phosphorylation in VSM cells; assay type: cell-based, rat; conditions: 0.5-20 μM, 20 min, 37° C., FIG. 1A
Description: as §2

Compound	survival and proliferation of cardiomyocytes in-vivo (PCNA-stained cells) [1]	XTT dye intensity (cell survival and viability) [2]	stimulation of p38-MAPK signaling [3]	stimulation of P38 pathway [4]	IC50 [5]	IC50 [6]	injury of cardiomyocytes at concentrations killing VSM cells [6]	IC50 [7]	stimulation of ERKs signaling pathway [8]	IC50 [9]	inhibition of STAT3 phosphorylation [10]	stimulation of ERKs survival pathway [11]	stimulation of ERKs signaling pathway [12]	stimulation of p38-MAPK signaling pathway [13]	acceleration of apoptotic response [14]	stimulation of ERKs signaling [15]
COC(=O)[C@@H]1CCCN1C1=C(Cl)C(=O)c2ccccc2C1=O [EH48, 2-chloro-3-(L-prolinemethyl ester)-1,4-naphthoquinone]	positive in-vivo effect	increase in cell survival and viability; also recorded: XTT elevation														
O=C1C(Nc2ccc(O)cc2)=C(N2CCCC2)C(=O)c2ccccc21 [TW96, 2-pyrrolidine-3-(p-hydroxy-phenylamino)-1,4-naphthoquinone]			stimulates mostly the P38-MAPK	specifically stimulate the P38 pathway	500 nM	400 nM	did not injure the cardiomyocytes at concentrations killing VSM cells	200 nM	without significantly influencing the ERKs signaling pathway	500 nM	strong inhibitor of STAT3 phosphorylation	without stimulating the ERKs survival pathway				
Cc1ccc(NC2=C(N3CCCC3)C(=O)c3ccccc3C2=O)cc1 [TW85, 2-pyrrolidine-3-(p-methylphenylamino)-1,4-naphthoquinone]					800 nM	> 20000 nM		3600 nM		3500 nM			stimulates the ERKs signaling pathway; also recorded: induced the formation of phosphorylated ERKs protein	not the p38-MAPK signaling pathway; also recorded: without inducing the formation of phosphorylated p38 protein		
Cc1ccc(NC2=C(Cl)C(=O)c3ccccc3C2=O)cc1 [TW69, 2-chloro-3-(p-methylphenylamino)-1,4-naphthoquinone]			stimulate both ERKs and p38-MAPKs signaling				did not injure the cardiomyocytes at concentrations killing VSM cells						stimulate mainly the ERKs signaling pathway; also recorded: induced the formation of phosphorylated ERKs protein	without significantly influencing the p38-MAPK signaling pathway; also recorded: without inducing the formation of phosphorylated p38 protein	30%	stimulate both ERKs and p38-MAPKs signaling
